{"source": "paper PMC6452685", "about": "“Lysyl-tRNA synthetase as a drug target in malaria and cryptosporidiosis” (Proceedings of the National Academy of Sciences of the …, 2019)", "key": {"HsKRS [1]": {"molecular_target": "T1, HsKRS (Homo sapiens, UniProt Q15046)", "T1 construct": "HsKRS (full-length) proteins; 6xHis (N); made in house; host or cells: E. coli Rosetta BL21(DE3), vector pAVA0421 (UW); template pET28a-KRS", "T1 sequence (Q15046 whole entry)": "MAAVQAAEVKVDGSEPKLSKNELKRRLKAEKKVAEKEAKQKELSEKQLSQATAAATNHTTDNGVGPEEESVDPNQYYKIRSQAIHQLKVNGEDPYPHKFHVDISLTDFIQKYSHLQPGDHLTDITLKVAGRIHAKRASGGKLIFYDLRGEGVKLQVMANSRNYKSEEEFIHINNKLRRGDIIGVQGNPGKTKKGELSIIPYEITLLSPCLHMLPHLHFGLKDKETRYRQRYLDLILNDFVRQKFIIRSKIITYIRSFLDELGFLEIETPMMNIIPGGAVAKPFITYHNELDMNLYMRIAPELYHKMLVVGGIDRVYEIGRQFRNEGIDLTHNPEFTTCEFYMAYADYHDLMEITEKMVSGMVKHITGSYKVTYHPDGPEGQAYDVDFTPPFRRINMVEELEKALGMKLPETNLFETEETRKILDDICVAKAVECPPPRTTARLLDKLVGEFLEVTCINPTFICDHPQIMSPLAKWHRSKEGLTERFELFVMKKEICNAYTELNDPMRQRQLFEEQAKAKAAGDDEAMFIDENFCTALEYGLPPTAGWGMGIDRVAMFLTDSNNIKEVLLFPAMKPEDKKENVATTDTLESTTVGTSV", "test": "HsKRS SAR assay, luciferase ATP consumption (Kinase-Glo)", "type": "biochemical", "experimental": "We produced recombinant PfKRS1 (77–583 and 80–583), CpKRS (46-end), and HsKRS (full-length) proteins and developed biochemical assays based on the luciferase ATP consumption assay (Kinase-Glo; Promega) ([16]), which was suitable for the high-throughput screening, and the pyrophosphate generation assay (EnzChek) ([17]) format for kinetic characterization of the enzymes. The activities of recombinant enzymes were analyzed by monitoring only the first stage of the aminoacylation reaction. This reaction is suitable for high-throughput screening campaigns and makes the reaction more amenable for steady-state kinetic studies. By using the EnzChek assay, which monitors the production of pyrophosphate (when coupled with pyrophosphatase), Km values were obtained for PfKRS1, CpKRS, and HsKRS for ATP and L-lysine (Table 1 and SI Appendix, Fig. S1 and Table S1). […] This may be due to structural differences (see below) between the active sites of the parasite and human enzymes. […]\n2.7 PfKR S1, CpKRS and HsKR S S AR Ass ay Usin g L ucife r ase ATP C onsumption ( Kinase Glo ®) Inhi bi ti on of KRS acti vity by cl adospori n and other compou nds was assayed i n t he buffered me di um.\nEach as s ay w el l was compos ed of b uffer (as des cri bed i n Ta bl e S3), 10 µM l ysi ne and ei ther 8.1 nM PfKRS1, 8.1 nM CpKRS or 6.6 nM HsKRS. […] The react i on w a s initiated by the addition of 2 µM ATP. The plate was incubated with shaking at 90 rpm and 30°C for 120 mi n. […] Maximum and minimum signal controls were included in each reaction plate. […] Analysis and calculation of inhibitors IC50 values were performed using Graphpad® Prism software (GraphPad S oftware, San Diego, CA). […]"}, "HsKRS [2]": {"molecular_target": "T1, HsKRS", "test": "Recombinant KRS thermal shift assay, HsKRS", "type": "binding", "details": "40 µM inhibitor", "experimental": "2.9 Recombin ant KR S thermal shift assays ( UW)\nRecombi nant PfKRS1, CpKRS, and HsKRS were di l u ted to 4 µM in assay buffe r c ontaining 20 mM Tris-HC l pH 8, 200 mM NaC l , 5 mM DTT, 5 mM MgC l2 and l i gands (1 mM lysi ne; 40 µM ATP; and 40 µM inhibitors) in various combinations. Ali quot s (10 µl) were added to a 96-well PCR plate and incubated at ambi ent temperature for 15 mi n. SYPRO® Ora n g e dye (I nv itrog en) was di l uted i n ass ay buffer to a 5x concent rat i on a nd 1 0 µl was added to t he P C R pl at e t o bri ng t he fi nal as s ay v ol ume t o 20 µl. The pl at e w as s eal ed and pul s e cent ri fug ed t o cons ol i dat e t he as s ay mix t ure and remov e ai r bu bbl es .\nUs i ng a StepOne Pl us RT-PCR thermal cycler (Ap plied Biosystems) to monitor fluorescence at a n excitation/emission wavelength of 300/470-570 nm, the samples were heated from 25° C to 99° C at a ramp rate of .016° C/sec. Graphpa d® P rism software (GraphPad S oftware, San Diego, CA) was used to determine melting temperatures (Tm) us i ng Bol tzmann s i g moi dal analys is .\nTable S3. Thermal shift data for compounds with P fKRS1, Cp KRS a nd Hs KRS.\nCom poun d Eff ects o n Lys R S M elti ng Tem pe ratu re ( ∆Tm) […]"}, "CHI logD": {"test": "CHI logD", "type": "physicochemical", "details": "reversed-phase HPLC (Luna C18 column), pH 7.4", "experimental": "targets. Thi s can be determi ned by ei ther l og D or Log P measurements, whi ch are tradi ti onal ly qui te time consuming and require quite large amounts of com pound to determine accurately.\nThe CHI Log D assay, fi rst descri bed by Valkό et a l. (17), has been adapt ed and perfo rmed at pH 7. […] An ali quot (10 µl) i s then i njected onto a Luna C18 col umn (Phenomenex, Maccl esfi el d, UK, 4.6 x 150 mm) wi th 5 µ m pa rti cl e size. Mobil e phase A (MPA) i s 50 mM ammoni um acetate (pH 7.4) and mobi l e Phase B (MPB) i s MeCN. The LC system used was a Dionex Ultimate 3000 HLPC where 10 0% MPA was hel d for the i ni ti al 1.5 mi n of the run, then a l i near gradi ent to 0% MPA takes pl ace over the next 10 mi n bef ore being held there fo r a furthe r 2. 5 mi n bef ore re-eq uilibration back to 100% MPA at 14 min with data collection continuing until 1 5 mi n. Flow rate was 1 ml/mi n w i t h det ecti on at 25 4 nm U V and ambi ent t emperat ure.\nThe ret ent i on t i me (t R) of t he unk nown drug is interpolated from the slope and intercept created us i ng ret ent i on t i mes of s t andard mi x t ure c o mponent s cont ai ni ng paracet amol , t heophy l l i ne, caffei ne, benzi mi dazol e, col chi ci ne, carbamazepi ne, i ndol e, propi ophenone, b uty rophen one , valerophenone and hepatophenone (prepared at 10 µg/ml in MeCN:water [1/1, by v ol ume]), w hi ch cov ers the C HI l og D rang e from -1 t o 4. […]\n4.4 Int r ins ic C le ar ance (CLi) experiments\nThe mous e an d h uman c ry opres erv ed he pat ocy t es w ere s uppl i ed by Xenot ech (bat ches M C 53 9 n a HUE50H ). The procedure was carried out as reported prev i ous l y (15). […] Immediately, at time zero, then at 3, 6, 9, 15 and 30 min an aliquot ( 50 μl) o f the i ncubati on mi x ture was remov ed and mi x ed with acetonitrile (100 μl) contai ni ng i nternal s tandard to stop the reaction. […] XLfi t software (I DBS, Guildford UK) was used to cal cul ate the exponenti al decay and consequentl y the rate cons tant (ke-1) from the rati o of peak area of tes t compou nd to i nternal s tandard at each ti me poi nt . […]"}}}
{"smiles": "O=C(NCC1(O)CCCCC1)c1cc(=O)c2cc(F)ccc2o1", "note": "[Compound 4]", "values": [{"measurement": "IC50", "setting": "HsKRS [1]", "result": 740, "unit": "nM"}, {"measurement": "ΔTm at 40 µM", "setting": "HsKRS [2]; ATP + Lysine", "result": -7.2, "unit": "°C"}, {"measurement": "ΔTm at 40 µM", "setting": "HsKRS [2]; ATP", "result": -0.1, "unit": "°C"}, {"measurement": "ΔTm at 40 µM", "setting": "HsKRS [2]; Lysine", "result": -7.4, "unit": "°C"}, {"measurement": "ΔTm at 40 µM", "setting": "HsKRS [2]; no substrate", "result": -0.5, "unit": "°C"}]}
{"smiles": "O=C(NCC1(O)CCC(F)(F)CC1)c1cc(=O)c2cc(F)ccc2o1", "note": "[Compound 5]", "values": [{"measurement": "IC50", "setting": "HsKRS [1]", "result": 1800, "unit": "nM"}, {"measurement": "chromatographic logD", "setting": "CHI logD", "result": 1.7}, {"measurement": "ΔTm at 40 µM", "setting": "HsKRS [2]; ATP + Lysine", "result": -7.4, "unit": "°C"}, {"measurement": "ΔTm at 40 µM", "setting": "HsKRS [2]; ATP", "result": 0.4, "unit": "°C"}, {"measurement": "ΔTm at 40 µM", "setting": "HsKRS [2]; Lysine", "result": -7.6, "unit": "°C"}, {"measurement": "ΔTm at 40 µM", "setting": "HsKRS [2]; no substrate", "result": 0.3, "unit": "°C"}]}
{"smiles": "O=C(NCC1CCCCC1)c1cc(=O)c2ccccc2o1", "note": "[Compound 2]", "values": [{"measurement": "IC50", "setting": "HsKRS [1]", "result": "> 2000", "unit": "nM"}, {"measurement": "chromatographic logD", "setting": "CHI logD", "result": 2.9}, {"measurement": "ΔTm at 40 µM", "setting": "HsKRS [2]; ATP + Lysine", "result": -8.6, "unit": "°C"}, {"measurement": "ΔTm at 40 µM", "setting": "HsKRS [2]; ATP", "result": 0.3, "unit": "°C"}, {"measurement": "ΔTm at 40 µM", "setting": "HsKRS [2]; Lysine", "result": -10, "unit": "°C"}, {"measurement": "ΔTm at 40 µM", "setting": "HsKRS [2]; no substrate", "result": -0.3, "unit": "°C"}]}
{"smiles": "O=C(NCC1CCCCC1)c1cc(=O)c2cc(F)ccc2o1", "note": "[Compound 3]", "values": [{"measurement": "IC50", "setting": "HsKRS [1]", "result": "> 2000", "unit": "nM"}, {"measurement": "ΔTm at 40 µM", "setting": "HsKRS [2]; ATP + Lysine", "result": -10.8, "unit": "°C"}, {"measurement": "ΔTm at 40 µM", "setting": "HsKRS [2]; ATP", "result": 0.4, "unit": "°C"}, {"measurement": "ΔTm at 40 µM", "setting": "HsKRS [2]; Lysine", "result": -8.4, "unit": "°C"}, {"measurement": "ΔTm at 40 µM", "setting": "HsKRS [2]; no substrate", "result": -0.1, "unit": "°C"}]}
{"smiles": "C[C@H]1CCC[C@H](C[C@H]2Cc3cc(O)cc(O)c3C(=O)O2)O1", "note": "[Compound 1, cladosporin, reference compound]", "values": [{"measurement": "IC50", "setting": "HsKRS [1]", "result": "> 2000", "unit": "nM"}, {"measurement": "chromatographic logD", "setting": "CHI logD", "result": 2.4}, {"measurement": "ΔTm at 40 µM", "setting": "HsKRS [2]; ATP + Lysine", "result": -8.2, "unit": "°C"}, {"measurement": "ΔTm at 40 µM", "setting": "HsKRS [2]; ATP", "result": 0.3, "unit": "°C"}, {"measurement": "ΔTm at 40 µM", "setting": "HsKRS [2]; Lysine", "result": -9.2, "unit": "°C"}, {"measurement": "ΔTm at 40 µM", "setting": "HsKRS [2]; no substrate", "result": -0.1, "unit": "°C"}]}
